Measurements from ChEMBL document CHEMBL4476873, “Substituted urea depsipeptide analogs as activators of the clpp endopeptidase” (2018).
Values after ≈ are worked out from the molar mass of the structure shown.

Columns and labels:
Staphylococcus aureus [1] = assay: Antimicrobial activity against Staphylococcus aureus ATCC 29213 incubated overnight under aerobic condition by microbroth dilution method; format: functional
Staphylococcus aureus [2] = assay: Antimicrobial activity against Staphylococcus aureus NRS70 incubated overnight under aerobic condition by microbroth dilution method; format: functional
Staphylococcus aureus [3] = assay: Antimicrobial activity against Staphylococcus aureus USA300 deficient in ClpP incubated overnight under aerobic condition by microbroth dilution method; format: functional
Vero = assay: Cytotoxicity in African green monkey Vero cells assessed as reduction in cell viability incubated for 72 hrs by cell-titer-Glo luminescent cell viability assay; format: cell-based; settings: Chlorocebus sabaeus
[4] = molecular target: T1, ATP-dependent Clp protease proteolytic subunit (Staphylococcus aureus (strain NCTC 8325), UniProt Q2G036); assay: Displacement of ADEP2591 from Staphylococcus aureus ClpP expressed in Escherichia coli BL21 (DE3) incubated for 120 mins by fluorescence polarization assay
T1 sequence (Q2G036 whole entry): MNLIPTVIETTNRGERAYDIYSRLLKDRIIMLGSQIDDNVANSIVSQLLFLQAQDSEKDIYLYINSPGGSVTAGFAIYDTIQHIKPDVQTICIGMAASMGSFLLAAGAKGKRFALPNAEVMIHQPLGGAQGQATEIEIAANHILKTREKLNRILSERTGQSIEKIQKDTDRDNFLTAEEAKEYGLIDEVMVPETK

Staphylococcus aureus [5] = assay: Antimicrobial activity against Staphylococcus aureus USA300 incubated overnight under aerobic condition by microbroth dilution method; format: functional
Enterococcus faecalis = assay: Antimicrobial activity against Enterococcus faecalis ATCC 33186 incubated overnight under aerobic condition by microbroth dilution method; format: functional
Bacillus subtilis = assay: Antimicrobial activity against Bacillus subtilis ATCC 23857 incubated overnight under aerobic condition by microbroth dilution method; format: functional
Streptococcus pyogenes = assay: Antimicrobial activity against Streptococcus pyogenes ATCC 700294 incubated overnight under aerobic condition by microbroth dilution method; format: functional
[6] = molecular target: T1, ATP-dependent Clp protease proteolytic subunit; assay: Activation of Staphylococcus aureus ClpP using BODIPY-FL-casein as substrate incubated for 30 mins by Enz-Check protease assay
Streptococcus pneumoniae = assay: Antimicrobial activity against Streptococcus pneumoniae R6 incubated overnight under aerobic condition by microbroth dilution method; format: functional

Compound	MIC (Staphylococcus aureus [1]) [µM]	MIC (Staphylococcus aureus [2]) [µM]	MIC (Staphylococcus aureus [3]) [µM]	MIC (Streptococcus pyogenes) [µM]	also measured
COc1cccc(NC(=O)N[C@@H](Cc2ccccc2)C(=O)N[C@H]2COC(=O)[C@@H]3C[C@@H](C)CN3C(=O)[C@H](C)NC(=O)[C@@H]3CCCCN3C(=O)[C@@H]3CCCN3C2=O)c1	3.13 (≈ 2.42 µg/mL)	3.13 (≈ 2.42 µg/mL)			
C[C@H]1C[C@H]2C(=O)O[C@@H](C)[C@H](NC(=O)[C@H](Cc3cc(F)cc(F)c3)NC(=O)Nc3ccc(OC(F)(F)F)cc3)C(=O)N3C[C@H](O)C[C@H]3C(=O)N(C)[C@@H](C)C(=O)N[C@@H](C)C(=O)N2C1	0.1 (≈ 0.0868 µg/mL)	0.1 (≈ 0.0868 µg/mL)	100 (≈ 86.8 µg/mL)		
C[C@@H]1C[C@H]2C(=O)O[C@@H](C)[C@H](NC(=O)[C@H](Cc3cc(F)cc(F)c3)NC(=O)Nc3ccc(OC(F)(F)F)cc3)C(=O)N3CCC[C@H]3C(=O)N(C)[C@@H]([C@H](C)O)C(=O)N[C@@H](C)C(=O)N2C1					IC50 (Vero): 23.9 µM; IC50 [4]: 7.53 µM
CN[C@@H]1[C@H](O)[C@H](NC)[C@H]2O[C@@]3(O)C(=O)C[C@@H](C)O[C@H]3O[C@@H]2[C@H]1O [SPECTINOMYCIN]	50 (≈ 16.6 µg/mL)				MIC (Staphylococcus aureus [5]): 50 µM (≈ 16.6 µg/mL)
CN(C)[C@@H]1C(O)=C(C(N)=O)C(=O)[C@@]2(O)C(O)=C3C(=O)c4c(O)cccc4[C@@](C)(O)[C@H]3C[C@@H]12 [TETRACYCLINE]					MIC (Enterococcus faecalis): 0.05 µM (≈ 0.0222 µg/mL); MIC (Bacillus subtilis): 1.6 µM (≈ 0.711 µg/mL)
Cc1ccc(NC(=O)N[C@@H](Cc2cc(F)cc(F)c2)C(=O)N[C@H]2COC(=O)[C@@H]3CC(C)(C)CN3C(=O)[C@H](C)NC(=O)[C@@H]3CCCCN3C(=O)[C@@H]3CCCN3C2=O)cc1			100 (≈ 80.8 µg/mL)		
CCc1cccc(NC(=O)N[C@@H](Cc2ccccc2)C(=O)N[C@H]2COC(=O)[C@@H]3C[C@@H](C)CN3C(=O)[C@H](C)NC(=O)[C@@H]3CCCCN3C(=O)[C@@H]3CCCN3C2=O)c1	0.6 (≈ 0.463 µg/mL)	0.6 (≈ 0.463 µg/mL)			
C[C@H]1C[C@H]2C(=O)O[C@@H](C)[C@H](NC(=O)[C@H](Cc3cc(F)cc(F)c3)NC(=O)Nc3ccc(C(F)(F)F)cc3)C(=O)N3CCC[C@H]3C(=O)N3CCCC[C@H]3C(=O)N[C@@H](C)C(=O)N2C1				1.5 (≈ 1.29 µg/mL)	
C[C@@H]1NC(=O)[C@H](C)N(C)C(=O)[C@@H]2CCCN2C(=O)[C@@H](NC(=O)[C@H](Cc2cc(F)cc(F)c2)NC(=O)Nc2ccc(OC(F)(F)F)cc2)[C@H](C)OC(=O)[C@@H]2CCCN2C1=O	0.2 (≈ 0.168 µg/mL)	0.2 (≈ 0.168 µg/mL)	100 (≈ 83.8 µg/mL)		MIC (Staphylococcus aureus [5]): 0.2 µM (≈ 0.168 µg/mL)
Cc1ccc(NC(=O)N[C@@H](Cc2cc(F)cc(F)c2)C(=O)N[C@@H]2C(=O)N3C[C@H](O)C[C@H]3C(=O)N(C)[C@@H](C)C(=O)N[C@@H](C)C(=O)N3C[C@@H](C)C[C@H]3C(=O)O[C@H]2C)cc1			> 200		EC50 [6]: 0.37 µM; IC50 (Vero): > 100 µM
Cc1ccc(NC(=O)N[C@@H](Cc2cc(F)cc(F)c2)C(=O)N[C@@H]2C(=O)N3CCC[C@H]3C(=O)N3CCCC[C@H]3C(=O)N[C@@H](C)C(=O)N3C[C@H](C)C[C@H]3C(=O)O[C@H]2C)cc1	0.05 (≈ 0.0404 µg/mL)		100 (≈ 80.8 µg/mL)	0.2 (≈ 0.162 µg/mL)	MIC (Streptococcus pneumoniae): 0.05 µM (≈ 0.0404 µg/mL); MIC (Staphylococcus aureus [5]): 0.05 µM (≈ 0.0404 µg/mL); IC50 (Vero): 40 µM
NC[C@H]1O[C@H](O[C@H]2[C@H](O)[C@@H](O[C@H]3O[C@H](CO)[C@@H](O)[C@H](N)[C@H]3O)[C@H](N)C[C@@H]2N)[C@H](O)[C@@H](O)[C@@H]1O [KANAMYCIN]	1.56 (≈ 0.756 µg/mL)			12.5 (≈ 6.06 µg/mL)	MIC (Bacillus subtilis): 0.1 µM (≈ 0.0485 µg/mL)
Cc1ccc(NC(=O)N[C@@H](Cc2cc(F)cc(F)c2)C(=O)N[C@@H]2C(=O)N3CCC[C@H]3C(=O)N3CCOC[C@H]3C(=O)N[C@@H](C)C(=O)N3C[C@H](C)C[C@H]3C(=O)O[C@H]2C)cc1	0.003 (≈ 0.00243 µg/mL)		> 200	0.02 (≈ 0.0162 µg/mL)	MIC (Streptococcus pneumoniae): 0.002 µM (≈ 0.00162 µg/mL)
C[C@@H]1C[C@H]2C(=O)OC[C@H](NC(=O)[C@H](Cc3ccccc3)NC(=O)Nc3ccc(OC(F)(F)F)cc3)C(=O)N3CCC[C@H]3C(=O)N3CCCC[C@H]3C(=O)N[C@@H](C)C(=O)N2C1				0.1 (≈ 0.0828 µg/mL)	
CCc1ccc(NC(=O)N[C@@H](Cc2cc(F)cc(F)c2)C(=O)N[C@@H]2C(=O)N3CCC[C@H]3C(=O)N(C)[C@@H]([C@H](C)O)C(=O)N[C@@H](C)C(=O)N3C[C@H](C)C[C@H]3C(=O)O[C@H]2C)cc1			100 (≈ 82.6 µg/mL)		IC50 (Vero): 24.9 µM
C[C@H]1C[C@H]2C(=O)OC[C@H](NC(=O)[C@H](Cc3ccccc3)NC(=O)Nc3ccc(OC(F)(F)F)cc3)C(=O)N3CCC[C@H]3C(=O)N3CCCC[C@H]3C(=O)N[C@@H](C)C(=O)N2C1	0.4 (≈ 0.331 µg/mL)	0.4 (≈ 0.331 µg/mL)			
